Assay results published in patent US11246866B2, “Solid pharmaceutical compositions for treating HCV” (AbbVie Inc., priority 2015, dated 2022).

Experiment: Single-dose crossover bioavailability study of Compound 1/Compound 2 mini-tablets
Assay type: in vivo, human
Details: for t1/2: Compound 1, fasting, harmonic mean, N = 14; for effect of administration with food on bioavailability: co-formulated mini-tablets, solid dispersion form, with food vs fasting
Method: In comparison, when administered with food, the mini-tablets provided an AUC that was only 5% lower than that provided by the regular tablets. […] All of the reference AUCs of the regular tablets were measured under fasting conditions. 14 subjects were enrolled in this study and dosed with co-formulated Compound 1/Compound 2 in mini-tablets. One subject spilled 4 mini-tablets (out of 100-150 total mini-tablets) during dosing of Period 2 (Regimen G) and was not excluded from the analysis. The mini-tablets were prepared according to a process similar to that described in Example 2. [table] [table]

Row | SMILES | t1/2 (Regimen F: mini-tablets 200 mg/120 mg) | t1/2 (Regimen J: two 100 mg Compound 1 tablets and three 40 mg Compound 2 tablets) | effect of administration with food on bioavailability | AUC lower than that provided by regular tablets (mini-tablets containing 200 mg Compound 1, with food, vs two regular tablets under fasting conditions) | AUC lower than that provided by regular tablets (mini-tablets containing 200 mg Compound 1, without food, vs two regular tablets (same amount, same solid dispersion) under fasting conditions) | AUC higher than that provided by regular tablets (mini-tablets containing 120 mg Compound 2, with food, vs three regular tablets under fasting conditions) | AUC lower than that provided by regular tablets (mini-tablets containing 120 mg Compound 2, without food, vs three regular tablets under fasting conditions)
1 | CC(C)(C)[C@@H]1NC(=O)O[C@@H]2CCC[C@H]2OC/C=C/C(F)(F)c2nc3ccccc3nc2O[C@@H]2C[C@@H](C(=O)N[C@]3(C(=O)NS(=O)(=O)C4(C)CC4)C[C@H]3C(F)F)N(C2)C1=O [Compound 1] | 5.61 h | 5.93 h | significantly increase | 5% | 41% |  | 
2 | COC(=O)N[C@H](C(=O)N1CCC[C@H]1c1nc2cc([C@H]3CC[C@H](c4cc5nc([C@@H]6CCCN6C(=O)[C@@H](NC(=O)OC)[C@@H](C)OC)[nH]c5cc4F)N3c3cc(F)c(N4CCC(c5ccc(F)cc5)CC4)c(F)c3)c(F)cc2[nH]1)[C@@H](C)OC [Compound 2] |  |  | significantly increase |  |  | 6% | 28%
